Experimental data published in patent publication EP0556962A1, “Small peptide and pseudopeptide amides inhibiting the proliferation of small-cell and epithelial-cell lung cancer cells” (RICHTER GEDEON VEGYESZETI GYAR R.T., priority 1992, dated 1993).
Where a SMILES comes first, the peptide text is derived from it. [ ]: non-standard residue; d: D form. The star is where a group is joined. X2 = CC(C)C[C@@H](CN[C@@H](CC(C)C)C(N)=O)N*; X1 = O=C(Cc1ccc(O)cc1)*

Test system: BN receptors on the Swiss 3T3 mouse fibroblast cell line
Experiment: Test 1: displacement of [¹²⁵I-Tyr⁴]-BN from BN receptors on Swiss 3T3 cells
Assay type: binding
Conditions: 1 nmol [¹²⁵I-Tyr⁴]-BN, 4 °C, 3 hours
Procedure: The biological investigation of the new compounds of the invention was carried out in four tests. The BN-antagonizing effect of the compounds in question was determined in Test 1, based on measuring the displacement of the labelled [¹²⁵I-Tyr⁴]-BN from the BN receptors being present on the Swiss 3T3 mouse fibroblast cells. Test 2 and Test 3 were used to study the inhibitory effect of the compounds of the invention on the proliferation and propagation of NCI-H69 small-cell lung cancer cells. The inhibitory effect of the compounds of the invention on non-small-cell lung cancer cells and epithelial-cell lung cancer cells was investigated in Test 4.
Study of the binding of target compounds to BN receptors on the Swiss 3T3 mouse fibroblast cell line
Swiss 3T3 mouse fibroblast cells were grown on tissue-cultivating plates containing 24 holes in a D-MEM culture medium containing FCS of 10 % until a confluent and resting state (3x10⁵ cell/hole). The cells were washed 3 times with 0.5 ml of D-MEM of pH 7.4 (containing 0.2 % of BSA and 24 mmol of HEPES, and cooled to 4 °C), i.e. incubation mixture, each. […] At the end of the reaction the cells were washed twice with the incubation mixture and then 3 times with PBS (pH = 7.4).
The washings were carried out with 750 µl volumes of the ice-cold liquids each. The cells were solubilized by adding 750 µl of 0.5 M sodium hydroxide solution, carried over into test-tubes by pipette and the radio-activity bound to the cells was measured. The grade of aspecific binding was determined in the presence of a high concentration (10⁻⁶ mol/l) of cold [Tyr⁴]-BN. The amount of the specifically bound, labelled hormone was expressed as the percentage of the maximum binding, i.e. the specific binding in the absence of the compounds to be tested, as shown in Table 1.

Compound	Displacement as percentage of control net binding (1.18 µmol/l compound) [%]	Displacement as percentage of control net binding (2.36 µmol/l compound) [%]	Displacement as percentage of control net binding (4.71 µmol/l compound) [%]	Displacement as percentage of control net binding (9.42 µmol/l compound) [%]	Displacement as percentage of control net binding (18.8 µmol/l compound) [%]	Displacement as percentage of control net binding (37.6 µmol/l compound) [%]	Displacement as percentage of control net binding (75 µmol/l compound) [%]
CC(C)C[C@@H](CN[C@@H](CC(C)C)C(N)=O)NC(=O)[C@@H](Cc1c[nH]c2ccccc12)NC(=O)[C@H](Cc1ccccc1)NC(=O)[C@@H](Cc1c[nH]c2ccccc12)NC(=O)Cc1ccc(O)cc1 [(1)]	105	96	99	103	106	107	105
CC(C)C[C@@H](CN[C@@H](CC(C)C)C(N)=O)NC(=O)[C@@H](Cc1c[nH]c2ccccc12)NC(=O)[C@H](Cc1ccccc1)NC(=O)[C@@H](Cc1c[nH]c2ccccc12)NC(=O)[C@H](N)Cc1ccc(O)cc1 [(4)] (H-[dY][dW]F[dW]-X2)	85	88	79	72	61	52	45
CC(C)C[C@H](NC(=O)[C@H](CC(C)C)NC(=O)[C@@H](Cc1c[nH]c2ccccc12)NC(=O)[C@H](Cc1ccccc1)NC(=O)[C@@H](Cc1c[nH]c2ccccc12)NC(=O)Cc1ccc(O)cc1)C(N)=O [(I), reference compound] (X1-[dW]F[dW]LL-NH2)	108	98	83	55	33	18	23
